According to patent US20110224079A1, “SPIROHETEROCYCLIC N-OXYAMIDES AS PESTICIDES” (SYNGENTA CROP PROTECTION LLC, priority 2008, published 2011):

Legend:
[1] = test system: Bemisia tabaci (tobacco white fly); test: Example B7: activity against Bemisia tabaci, sprayed bean plants (larvicide, contact/feeding); format: in vivo; settings: 504 h, bean plants with N-2 nymphs sprayed, three weeks, read-out: activity (efficacy, number of emerged adults)
Method: Activity Against Bemisia tabaci (Tobacco White Fly)
(Larvicide, Contact/Feeding)
Bean plants are infested with 20-30 adults that were removed after a 4 day egg-laying period. After another 7 days, bean plants with hatched nymphs (N-2) are treated (2 replicates) with the test solutions in a spray chamber. Three weeks later, samples are checked for number of emerged adults. Efficacy was calculated by comparing number of emerged adults in treated and non treated samples.

[2] = test system: Aphis Craccivora (cowpea aphid); test: Example B9: activity against Aphis craccivora, sprayed pea seedlings (contact/feeding); format: in vivo; settings: 144 h, infested pea seedlings sprayed, 6 days
Description: (§1) Activity Against Aphis Craccivora (Cowpea Aphid)
(Mixed Population, Contact/Feeding)
6 days after treatment, samples are checked for mortality.

[3] = test system: Nilaparvata lugens (brown rice planthopper); test: Example B8: activity against Nilaparvata lugens, sprayed rice seedlings (larvicide, feeding/contact); settings: in Oryza sativa, read-out: activity (mortality, growth regulation, effects on F1 generation)
[4] = test system: Myzus persicae (green peach aphid); test: Example B1: activity against Myzus persicae, sprayed sunflower leaf discs (feeding/residual contact, preventive); settings: foliar, 144 h, read-out: activity (mortality)
[5] = test system: Myzus persicae (green peach aphid); test: Example B17: activity against Myzus persicae on sprayed pepper plants (feeding/residual contact); format: in vivo; settings: 144 h, infested pepper plants sprayed, 6 days
[6] = test system: Plutella xylostella (diamond back moth); test: Example B5: activity against Plutella xylostella, artificial diet in microtiter plate (larvicide, preventive); format: in vivo; settings: 120 h, L2 larvae, 5 days, read-out: activity (larval mortality, antifeedant, growth regulation)
Method: Activity Against Plutella xylostella (Diamond Back Moth)
(Larvicide, Feeding/Residual Contact Activity, Preventive)
24-well microtiter plate (MTP) with artificial diet is treated with test solutions by pipetting. After drying, the MTP's are infested with larvae (L2)(10-15 per well). After an incubation period of 5 days, samples are checked for larval mortality, antifeedant and growth regulation.

[7] = test system: Myzus persicae (green peach aphid); test: Example B2: activity against Myzus persicae, pea seedling roots in test solution (systemic/feeding, curative); settings: 144 h, read-out: activity (mortality)
[8] = test system: Myzus persicae (green peach aphid); test: Example B13: drench activity against Myzus persicae, pea seedlings in field soil; settings: 168 h, read-out: drench activity (mortality)
[9] = test system: Aphis Craccivora (cowpea aphid); test: Example B10: activity against Aphis craccivora, pea seedling roots in test solution (systemic/feeding); format: in vivo; settings: 144 h, roots of infested pea seedlings in test solution, 6 days
Description: as §1
(Mixed Population, Systemic/Feeding)

[10] = test system: Aphis Craccivora (cowpea aphid); test: Example B11: translaminar activity against Aphis craccivora on French bean leaves; format: in vivo; settings: 120 h, upper leaf side painted, aphids on lower side, 5 days
Method: Translaminar Activity Against Aphis Craccivora (Cowpea Aphid)
French bean leaves (Phaseolus vulgaris) are infested with about 20 mixed age individuals on the lower leaf side using clip cages. 1 day after the infestation, the upper side of the leaves is treated with the test solution by painting. 5 days later, samples are checked for mortality.

[11] = test system: Tetranychus urticae (two-spotted spider mite); test: Example B4: activity against Tetranychus urticae, sprayed bean leaf discs (feeding/residual contact, preventive); settings: foliar, 192 h, read-out: activity (egg, larval and adult mortality)
[12] = test system: Aonidiella Aurantii (red scale); test: Example B12: activity against Aonidiella aurantii, dipped potato tubers; format: in vivo; settings: 6-8 weeks after application, read-out: activity (number of crawlers of the next generation)
Description: Activity Against Aonidiella Aurantii (Red Scale)
Treatment of potato tubers by dipping the in the test solution. One day later, tubers are infested with about 50 crawlers. 6-8 weeks after application samples are checked for the number of crawlers of the next generation (compared to the non treated samples).

[13] = test system: Thrips tabaci (onion thrips); test: Example B3: activity against Thrips tabaci, sprayed sunflower leaf discs (feeding/residual contact, preventive); format: in vivo; settings: foliar, 144 h, mixed population, 6 days
Description: Activity Against Thrips tabaci (Onion Thrips)
(Mixed Population, Feeding/Residual Contact Activity, Preventive)

| SMILES | melting point | pest or weed control at 200 ppm [1] [%] | mortality at 400 ppm [3] [%] | mortality at 400 ppm [4] [%] | mortality at 400 ppm [7] [%] | mortality at 25 ppm [8] [%] | further results |
| --- | --- | --- | --- | --- | --- | --- | --- |
| CCOC(=O)OC1=C(c2cc(C)ccc2C)C(=O)N(OCOC)C12CCN(OC)CC2 [P1.2, Carbonic acid 3-(2,5-dimethyl-phenyl)-8-methoxy-1-methoxy-methoxy-2-oxo-1,8-diaza-spiro[4.5]dec-3-en-4-yl ester ethyl ester] |  | > 80 | > 80 | > 80 | > 80 | > 80 | mortality at 400 ppm [2]: > 80%; mortality at 200 ppm [5]: ≥ 80%; mortality at 400 ppm [6]: > 80%; mortality at 400 ppm [9]: > 80%; mortality at 400 ppm [10]: > 80% |
| CCOC(=O)OC1=C(c2c(C)cc(C)cc2C)C(=O)N(OCCOC)C12CCN(OC)CC2 [P1.6] |  | > 80 | > 80 | > 80 | > 80 | > 80 | mortality at 400 ppm [11]: > 80%; pest or weed control at 200 ppm [12]: > 80%; mortality at 400 ppm [10]: > 80% |
| C=CCON1C(=O)C(c2c(C)cc(C)cc2C)=C(OC(=O)OCC)C12CCN(OC)CC2 [P1.17] |  | > 80 | > 80 |  | > 80 | > 80 | mortality at 400 ppm [2]: > 80%; mortality at 400 ppm [11]: > 80%; mortality at 200 ppm [5]: ≥ 80%; pest or weed control at 200 ppm [12]: > 80%; mortality at 400 ppm [9]: > 80%; mortality at 400 ppm [10]: > 80% |
| CCOC(=O)OC1=C(c2c(C)cc(Br)cc2C)C(=O)N(OCOC)C12CCN(OC)CC2 [P1.19] |  |  | > 80 | > 80 | > 80 | > 80 | mortality at 200 ppm [5]: ≥ 80%; mortality at 400 ppm [6]: > 80%; pest or weed control at 200 ppm [12]: > 80%; mortality at 400 ppm [10]: > 80% |
| CCOC(=O)OC1=C(c2c(C)cccc2C)C(=O)N(OC)C12CCN(OC)CC2 [P1.74] |  |  |  | > 80 | > 80 |  | mortality at 400 ppm [13]: > 80%; mortality at 400 ppm [11]: > 80%; mortality at 400 ppm [6]: > 80% |
| CON1CCC2(CC1)C(O)=C(c1c(C)cc(C)cc1C)C(=O)N2O [P2.4, 1,4-Dihydroxy-8-methoxy-3-(2,4,6-trimethyl-phenyl)-1,8-diaza-spiro[4.5]dec-3-en-2-one] |  | > 80 | > 80 | > 80 | > 80 | > 80 | mortality at 400 ppm [11]: > 80%; mortality at 400 ppm [6]: > 80% |
| COCCON1C(=O)C(c2c(C)cc(C)cc2C)=C(O)C12CCN(OC)CC2 [P2.5] |  | > 80 | > 80 | > 80 | > 80 | > 80 | mortality at 400 ppm [11]: > 80%; pest or weed control at 200 ppm [12]: > 80%; mortality at 400 ppm [9]: > 80%; mortality at 400 ppm [10]: > 80% |
| CON1CCC2(CC1)C(O)=C(c1c(C)cc(C)cc1C)C(=O)N2OC [P2.7] |  | > 80 | > 80 | > 80 | > 80 | > 80 | mortality at 400 ppm [2]: > 80%; mortality at 400 ppm [13]: > 80%; mortality at 200 ppm [5]: ≥ 80%; pest or weed control at 200 ppm [12]: > 80%; mortality at 400 ppm [10]: > 80% |
| C#CCON1C(=O)C(c2c(C)cc(C)cc2C)=C(O)C12CCN(OC)CC2 [P2.8, 4-Hydroxy-8-methoxy-1-prop-2-ynyloxy-3-(2,4,6-trimethyl-phenyl)-1,8-diaza-spiro[4.5]dec-3-en-2-one] |  | > 80 | > 80 | > 80 | > 80 | > 80 | mortality at 400 ppm [11]: > 80%; mortality at 200 ppm [5]: ≥ 80%; pest or weed control at 200 ppm [12]: > 80%; mortality at 400 ppm [9]: > 80%; mortality at 400 ppm [10]: > 80% |
| COCON1C(=O)C(c2c(C)cc(Br)cc2C)=C(O)C12CCN(OC)CC2 [P2.14, 3-(4-bromo-2,6-dimethyl-phenyl)-4-hydroxy-8-methoxy-1-methoxymethoxy-1,8-diaza-spiro[4.5]dec-3-en-2-one] |  | > 80 | > 80 | > 80 | > 80 | > 80 | mortality at 400 ppm [13]: > 80%; mortality at 400 ppm [11]: > 80%; pest or weed control at 200 ppm [12]: > 80%; mortality at 400 ppm [9]: > 80% |
| CON1CCC2(CC1)C(O)=C(c1c(C)cc(C)cc1C)C(=O)N2OC1CCCO1 (stereo not shown) [P2.18, 4-Hydroxy-8-methoxy-1-(tetrahydro-furan-2-yloxy)-3-(2,4,6-trimethyl-phenyl)-1,8-diaza-spiro[4.5]dec-3-en-2-one] |  | > 80 | > 80 | > 80 | > 80 | > 80 | mortality at 400 ppm [13]: > 80%; mortality at 400 ppm [11]: > 80%; mortality at 200 ppm [5]: ≥ 80%; pest or weed control at 200 ppm [12]: > 80%; mortality at 400 ppm [9]: > 80%; mortality at 400 ppm [10]: > 80% |
| CON1CCC2(CC1)C(O)=C(c1c(C)cc(C)cc1C)C(=O)N2OCCOC1CCCCO1 (stereo not shown) [P2.22] | 135 to 137 °C |  |  |  |  |  |  |
| CON1CCC2(CC1)C(O)=C(c1cc(C)c(C)cc1Cl)C(=O)N2OC1CCCO1 (stereo not shown) [P2.63] |  |  |  |  |  |  | mortality at 200 ppm [5]: ≥ 80%; mortality at 400 ppm [6]: > 80% |
| COCCON1C(=O)C(c2cc(Br)c(C)cc2C)=C(O)C12CCN(OC)CC2 [P2.73] | 63 to 64 °C |  |  |  |  |  |  |
| CON1CCC2(CC1)C(O)=C(c1cc(Br)c(C)cc1C)C(=O)N2OC [P2.75] | 86 to 87 °C |  |  |  |  |  |  |
| CON1CCC2(CC1)C(O)=C(c1c(C)cc(C)cc1C)C(=O)N2OCC1CCCCC1 [P2.96] | 169 to 172 °C |  |  |  |  |  |  |
| CON1CCC2(CC1)C(O)=C(c1c(C)cc(Cl)cc1C)C(=O)N2OC1CCCO1 (stereo not shown) [P2.105] | 137 to 139 °C |  |  |  |  |  |  |

Now from value to compound, other results behind:

| melting point | SMILES | pest or weed control at 200 ppm [1] [%] | mortality at 400 ppm [3] [%] | mortality at 400 ppm [4] [%] | mortality at 400 ppm [7] [%] | mortality at 25 ppm [8] [%] | further results |
| --- | --- | --- | --- | --- | --- | --- | --- |
| 93 to 95 °C | COCON1C(=O)C(c2cc(C)ccc2C)=C(OC(=O)CC(C)(C)C)C12CCN(OC)CC2 [P1.5] |  |  |  |  |  |  |
| 91 to 93 °C | COCON1C(=O)C(c2cc(C)ccc2C)=C(OC)C12CCN(OC)CC2 [P1.31] |  |  |  |  |  |  |
| 116 to 119 °C | CCOC(=O)OC1=C(c2c(F)ccc(C)c2Cl)C(=O)N(OCOC)C12CCN(OC)CC2 [P1.61] |  |  |  |  |  |  |
| 122 to 125 °C | CCOC(=O)OC1=C(c2c(C)cc(Cl)cc2C)C(=O)N(OC)C12CCN(OC)CC2 [P1.114] |  |  |  |  |  |  |
| 128 °C (dec.) | COCON1C(=O)C(c2c(C)cc(-c3ccc(Cl)cc3)cc2C)=C(O)C12CCN(OC)CC2 [P2.15, 3-(4′-Chloro-3,5-dimethyl-biphenyl-4-yl)-4-hydroxy-8-methoxy-1-methoxymethoxy-1,8-diaza-spiro[4.5]dec-3-en-2-one] |  |  |  |  |  |  |
| 155 to 158 °C | COCON1C(=O)C(c2c(F)ccc(C)c2Cl)=C(O)C12CCN(OC)CC2 [P2.60] |  |  |  |  |  |  |
| 71 to 74 °C | COCCON1C(=O)C(c2cc(Br)c(F)cc2C)=C(O)C12CCN(OC)CC2 [P2.87] |  |  |  |  |  |  |
| 64 to 67 °C | COCON1C(=O)C(c2cc(Br)c(F)cc2C)=C(O)C12CCN(OC)CC2 [P2.89] |  |  |  |  |  |  |
| 161 to 164 °C | COCCON1C(=O)C(c2c(C)cc(Cl)cc2C)=C(O)C12CCN(OC)CC2 [P2.101] |  |  |  |  |  |  |
| 88 to 92 °C | CON1CCC2(CC1)C(O)=C(c1c(C)cc(Cl)cc1C)C(=O)N2OC [P2.102] |  |  |  |  |  |  |
| 176 to 178 °C | COCON1C(=O)C(c2c(C)cc(Cl)cc2C)=C(O)C12CCN(OC)CC2 [P2.104] |  |  |  |  |  |  |
